Measured values from patent US8188292B2, “Insecticidal N-substituted (heteroaryl)alkyl sulfilimines” (Dow AgroSciences, LLC, priority 2006, dated 2012).

Assays:
[1] = test system: green peach aphid (Myzus persicae); assay: Insecticidal test for green peach aphid in foliar spray assay; type: in vivo; parameters: key to GPA 50: % control at 50 ppm against green peach aphid in foliar spray tests / GPA 200: % control at 200 ppm against green peach aphid in foliar spray tests: A: 90-100; B: 80-89; C: 70-79; D: 60-69; E: 50-59; F: Less than 50; G: Inactive; H: Not tested; settings: foliar spray on cabbage seedlings, 3 days, Corrected % Control (Abbott); for pest or weed control at 200 ppm / pest or weed control at 50 ppm: Myzus persicae, 72 h; for pest or weed control at 200 ppm: read-out: GPA 200: % control at 200 ppm against green peach aphid in foliar spray tests; for pest or weed control at 50 ppm: read-out: GPA 50: % control at 50 ppm against green peach aphid in foliar spray tests
Method: The compounds identified in the foregoing examples were tested against cotton aphid and green peach aphid using procedures described hereinafter. Squash with fully expanded cotyledon leaves were trimmed to one cotyledon per plant and infested with cotton aphid (wingless adult and nymph) 1 day prior to chemical application. Each plant was examined before chemical application to ensure proper infestation (ca. 30-70 aphids per plant). Compounds (2 mg) were dissolved in 2 ml of acetone:methanol (1:1) solvent, forming stock solutions of 1000 ppm. The stock solutions were diluted 5× with 0.025% Tween 20 in H2O to obtain a solution at 200 ppm. Lower concentrations (50, 12.5 and 3.13 ppm) were prepared by making sequential 4× dilutions from the 200 ppm solution with a diluent consisting 80 parts of 0.025% Tween 20 in H2O and 20 parts of acetone:methanol (1:1). A hand-held Devilbiss sprayer was used to apply the spray solutions until runoff to both sides of the squash cotyledon leaves. Four plants (4 replications) were used for each concentration of each compound. Reference plants (solvent check) were sprayed with the diluent only. Treated plants were held in a holding room for 3 days at approximately 23° C. and 40% RH before the number of live aphids on each plant was recorded. Insecticidal activity was measured by Corrected % Control using Abbott's correction formula and presented in Table 1: Corrected % Control=100*(X−Y)/X • where X=No. of live aphids on solvent check plants • Y=No. of live aphids on treated plants Insecticidal Test for Green Peach Aphid (Myzus Persicae) in Foliar Spray Assay Cabbage seedlings grown in 3-inch pots, with 2-3 small (3-5 cm) true leaves, were used as test substrate. The seedlings were infested with 20-50 green peach aphids (wingless adult and nymph) 2-3 days prior to chemical application. Four seedlings were used for each treatment. Compounds (2 mg) were dissolved in 2 ml of acetone:methanol (1:1) solvent, forming stock solutions of 1000 ppm. The stock solutions were diluted 5× with 0.025% Tween 20 in H2O to obtain a solution at 200 ppm. Lower concentrations (50, 12.5 and 3.13 ppm) were prepared by making sequential 4× dilutions from the 200 ppm solution with a diluent consisting 80 parts of 0.025% Tween 20 in H2O and 20 parts of acetone: methanol (1:1). A hand-held Devilbiss sprayer was used for spraying a solution to both sides of cabbage leaves until runoff. Reference plants (solvent check) were sprayed with the diluent only. Treated plants were held in a holding room for three days at approximately 23° C. and 40% RH prior to grading. Evaluation was conducted by counting the number of live aphids per plant under a microscope. Insecticidal activity was measured by using Abbott's correction formula: Corrected % Control=100*(X−Y)/X • where X=No. of live aphids on solvent check plants • Y=No. of live aphids on treated plants The Corrected % Control values from assays are given in Table 1.

[2] = test system: cotton aphid (Aphis gossypii); assay: Insecticidal test for cotton aphid in foliar spray assay; type: in vivo; parameters: key to CA 50: % control at 50 ppm against cotton aphid in foliar spray tests: A: 90-100; B: 80-89; C: 70-79; D: 60-69; E: 50-59; F: Less than 50; G: Inactive; H: Not tested; settings: foliar spray on squash cotyledons, 3 days, Corrected % Control (Abbott); for pest or weed control at 200 ppm / pest or weed control at 50 ppm: Aphis gossypii, 72 h; for pest or weed control at 200 ppm: read-out: CA 200: % control at 200 ppm against cotton aphid in foliar spray tests; for pest or weed control at 50 ppm: read-out: CA 50: % control at 50 ppm against cotton aphid in foliar spray tests
Method: The compounds identified in the foregoing examples were tested against cotton aphid and green peach aphid using procedures described hereinafter. Insecticidal Test for Cotton Aphid (Aphis Gossypii) in Foliar Spray Assay Squash with fully expanded cotyledon leaves were trimmed to one cotyledon per plant and infested with cotton aphid (wingless adult and nymph) 1 day prior to chemical application. Each plant was examined before chemical application to ensure proper infestation (ca. 30-70 aphids per plant). Compounds (2 mg) were dissolved in 2 ml of acetone:methanol (1:1) solvent, forming stock solutions of 1000 ppm. The stock solutions were diluted 5× with 0.025% Tween 20 in H2O to obtain a solution at 200 ppm. Lower concentrations (50, 12.5 and 3.13 ppm) were prepared by making sequential 4× dilutions from the 200 ppm solution with a diluent consisting 80 parts of 0.025% Tween 20 in H2O and 20 parts of acetone:methanol (1:1). A hand-held Devilbiss sprayer was used to apply the spray solutions until runoff to both sides of the squash cotyledon leaves. Four plants (4 replications) were used for each concentration of each compound. Reference plants (solvent check) were sprayed with the diluent only. Treated plants were held in a holding room for 3 days at approximately 23° C. and 40% RH before the number of live aphids on each plant was recorded. Insecticidal activity was measured by Corrected % Control using Abbott's correction formula and presented in Table 1: Corrected % Control=100*(X−Y)/X • where X=No. of live aphids on solvent check plants • Y=No. of live aphids on treated plants Insecticidal Test for Green Peach Aphid (Myzus Persicae) in Foliar Spray Assay

Row | SMILES | GPA 50: % control at 50 ppm against green peach aphid in foliar spray tests [1] | pest or weed control at 200 ppm [1] | CA 50: % control at 50 ppm against cotton aphid in foliar spray tests ([2]; 50 ppm) | pest or weed control at 200 ppm [2] | GPA 200: % control at 200 ppm against green peach aphid in foliar spray tests [1] | pest or weed control at 50 ppm ([2]; 50 ppm) | pest or weed control at 50 ppm [1]
1 | CS(=NC#N)[C@@H]1CCC[C@@H]1c1ccc(Cl)nc1 (relative stereo) [Compound 9, cis-[2-(6-chloropyridin-3-yl)cyclopentyl](methyl)-λ^4-sulfanylidenecyanamide] | G | 60 to 69% | G | 60 to 69% | – | – | –
2 | C/S(Cc1ccc(C(F)(F)F)nc1)=N\C#N (stereo not drawn) [Compound 1] | G | – | – | 90 to 100% | G | 60 to 69% | –
3 | CC(c1ccc(C(F)(F)Cl)nc1)/S(C)=N/C#N (stereo not drawn) [Compound 2, (1-{6-[chloro(difluoro)methyl]pyridin-3-yl}ethyl)(methyl)-λ^4-sulfanylidenecyanamide] | – | 90 to 100% | – | 90 to 100% | – | 90 to 100% | 90 to 100%
4 | CC(c1ccc(C(Cl)(Cl)Cl)nc1)/S(C)=N/C#N (stereo not drawn) [Compound 3, {1-[6-(trichloromethyl)pyridin-3-yl]ethyl}(methyl)-λ^4-sulfanylidenecyanamide] | – | 90 to 100% | – | 90 to 100% | – | 90 to 100% | 90 to 100%
5 | CC(c1cnc(Cl)nc1)/S(C)=N/C#N (stereo not drawn) [Compound 4, (1E)-[1-(2-chloropyrimidin-5-yl)ethyl](methyl)-λ^4-sulfanylidenecyanamide] | G | < 50% | – | 90 to 100% | – | 70 to 79% | –
6 | C/S(Cc1cnc(C(F)(F)F)s1)=N\C#N (stereo not drawn) [Compound 5, (1E)-methyl {[2-(trifluoromethyl)-1,3-thiazol-5-yl]methyl}-λ^4-sulfanylidenecyanamide] | G | – | – | 90 to 100% | G | 50 to 59% | –
7 | N#C/N=S1/CCC(c2ccc(C(F)(F)F)nc2)C1 (stereo not drawn) [Compound 6, 3-[6-(trifluoromethyl)pyridin-3-yl]tetrahydro-1H-1λ^4-thien-1-ylidenecyanamide] | – | 70 to 79% | – | 90 to 100% | – | 90 to 100% | 50 to 59%
8 | C/S(Cc1cnc(Cl)c(F)c1)=N\C#N (stereo not drawn) [Compound 7, [(5-fluoro-6-chloropyridin-3-yl)methyl](methyl)-λ^4-sulfanylidenecyanamide] | – | 70 to 79% | – | 90 to 100% | – | 90 to 100% | 60 to 69%
9 | C/S(Cc1ccc(C(C)(F)F)nc1)=N\C#N (stereo not drawn) [Compound 8] | – | 90 to 100% | – | 90 to 100% | – | 90 to 100% | 60 to 69%
